According to patent US20180171411A1, “GFRalpha1 AS A BIOMARKER FOR CISPLATIN-INDUCED CHEMORESISTANCE AND METASTASIS” (THE BOARD OF REGENTS OF THE UNIVERSITY OF TEXAS SYSTEM, priority 2015, published 2018):
Peptide text beside a SMILES is read from it. * marks the point of attachment. Cbz = O=C(OCc1ccccc1)*; CH2F = FC*

Columns and labels:
Type in all cases: cell-based, human
[1] = tested on: LC3-II in GFRα1-overexpressing MG-63 cells; assay: Immunoblot of LC3-II in GFRα1-overexpressing cells; conditions: 3-MA (10 μM) or Baf (100 nM)
Experimental: FIG. 3. GFRα1-induced autophagy enhances the chemoresistance of osteosarcoma cells induced by cisplatin. (a) Control and GFRα1-deficient MG-63 cells were transiently transfected with a mRFP-GFP tandem fluorescent-tagged LC3 (mRFP-GFP-LC3) vector and then treated with cisplatin (20μM) for 24 hr. Left, representative images of RFP-LC3 and GFP-LC3 puncta. Scale bar, 20 μm. Right, quantitative analysis of the number of yellow puncta and the number of RFP-LC3 puncta in the combined images. The values are represented as a mean±s.d.m. (n=3). ** denotes p<0.05 by t-test. (b) Control and GFRα1-deficient MG-63 cells were treated with cisplatin (20 μM) for 24 hr and then stained with acridine orange. […] Bottom, quantitative analysis of the number of AVOs. […] (c) Control and GFRα1-deficient MG-63 cells were treated with cisplatin (20 μM) for 24 hr and then analyzed by TEM. Top, representative images of autophagic vacuoles (yellow arrows) detected after cisplatin treatment in control MG-63 cells. […] Bottom, quantitative analysis of the number of autophagic vacuoles. […] (e) Quantitative analysis of the number of yellow puncta and the number of RFP-LC3 puncta in control and GFRα1-overexpressing MG-63 cells. […] Bottom, quantitative analysis of the number of AVOs. […] (h) Control and GFRα1-overexpressing MG-63 cells were treated with cisplatin (20 μM) for 24 hr and then analyzed by TEM. […]

[2] = tested on: GFRα1-overexpressing MG-63 cells; assay: WST-1 cell viability of GFRα1-overexpressing osteosarcoma cells; conditions: with DMSO, 3-MA or Baf, then cisplatin 20 μM 24 hr
Experimental: FIG. 3. GFRα1-induced autophagy enhances the chemoresistance of osteosarcoma cells induced by cisplatin. (a) Control and GFRα1-deficient MG-63 cells were transiently transfected with a mRFP-GFP tandem fluorescent-tagged LC3 (mRFP-GFP-LC3) vector and then treated with cisplatin (20μM) for 24 hr. Left, representative images of RFP-LC3 and GFP-LC3 puncta. Scale bar, 20 μm. Right, quantitative analysis of the number of yellow puncta and the number of RFP-LC3 puncta in the combined images. The values are represented as a mean±s.d.m. (n=3). ** denotes p<0.05 by t-test. (b) Control and GFRα1-deficient MG-63 cells were treated with cisplatin (20 μM) for 24 hr and then stained with acridine orange. Top, representative images of cells stained with acridine orange. Scale bar, 20 μm. Bottom, quantitative analysis of the number of AVOs. The values are represented as a mean±s.d.m. (n=3). ** denotes p<0.05 by t-test. (c) Control and GFRα1-deficient MG-63 cells were treated with cisplatin (20 μM) for 24 hr and then analyzed by TEM. Top, representative images of autophagic vacuoles (yellow arrows) detected after cisplatin treatment in control MG-63 cells. Scale bar, 100 nm. Bottom, quantitative analysis of the number of autophagic vacuoles. The values are represented as a mean±s.d.m. (n=3). ** denotes p<0.05 by t-test. (d) Immunoblot analysis of control and GFRα1-overexpressing osteosarcoma cell lysates with antibodies specific for GFRα1, LC3 and β-actin. […] (e) Quantitative analysis of the number of yellow puncta and the number of RFP-LC3 puncta in control and GFRα1-overexpressing MG-63 cells. […] Bottom, quantitative analysis of the number of AVOs. […] (h) Control and GFRα1-overexpressing MG-63 cells were treated with cisplatin (20 μM) for 24 hr and then analyzed by TEM. Top, representative images of autophagic vacuoles detected after cisplatin treatment in control and GFRα1-overexpressing MG-63 cells. […] Bottom, quantitative analysis of the number of autophagic vacuoles. […] Cell viability was measured using the WST-1 assay. […] Cell viability was measured using the WST-1 assay. […]

[3] = tested on: GFRα1-overexpressing MG-63 clone #4; assay: Colony-forming assay in the presence of cisplatin; conditions: cisplatin 20 μM 10 days; 3-MA (10 μM), Baf (100 nM), CQ (30 μg/ml)
Excerpt: FIG. 3. […] Scale bar, 20 μm. […] Scale bar, 20 μm. […] Scale bar, 20 μm.

[4] = tested on: Caspase-3 activity in control and GFRα1-deficient MG-63 cells; assay: Caspase-3 activity (Colorimetric CaspACE assay); conditions: cisplatin 20 μM 24 hr, ZVAD-FMK 50 μM
Excerpt: FIG. 2. GFRα1 suppresses the chemosensitivity of osteosarcoma cells induced by cisplatin. (a) Generation of GFRα1-deficient osteosarcoma cell lines with GFRα1 shRNA. Both MG-63 and U-2 OS cells were transfected with control or GFRα1 shRNA. Immunoblot analysis of control and GFRα1-deficient stable osteosarcoma cell lysates with antibodies specific for GFRα1 and β-actin. (b) Cell viability of GFRα1-deficient osteosarcoma cells after cisplatin treatment. Control or GFRα1-deficient cells were cultured and treated with different concentrations of cisplatin for 24 hr. Cell viability was measured using the WST-1 assay. The values are represented as a mean±s.d.m. (n=3). ** denotes p<0.05 by t-test. (c) Apoptotic response of GFRα1-deficient osteosarcoma cells after cisplatin treatment. […] Apoptotic cells by FITC-Annexin V staining (top) and viable cells by PI staining (bottom) were analyzed through flow cytometry. […] Cell viability was measured using the WST-1 assay. […] Apoptotic cells by FITC-Annexin V staining (top) and viable cells by PI staining (bottom) were analyzed through flow cytometry. […]
Apoptosis Assays. […] Apoptotic cells were analyzed using a FACSCalibur flow cytometer with CellQuest software (Becton Dickinson, Franklin Lakes, N.J.). […] Caspase 3 activity was analyzed by the Colorimetric CaspACE™ Assay System (Promega, Madison, Wis.) according the manufacturer's instructions. […]

Row | Structure (SMILES) | level of LC3-II expression [1] | increase of cell proliferation in GFRα1 overexpressing cells [2] | number of colonies [3] | Caspase-3 activity increase in cisplatin-treated GFRα1-deficient MG-63 cells [4]
1 | CO/C1=C\C(C)=C\[C@@H](C)[C@@H](O)[C@@H](C)C/C(C)=C/C=C/[C@H](OC)[C@@H]([C@@H](C)[C@@H](O)[C@H](C)[C@@]2(O)C[C@@H](O)[C@H](C)[C@@H](C(C)C)O2)OC1=O [Baf, bafilomycin A1] | increased | not | effectively reduced | 
2 | COC(=O)C[C@H](NC(=O)[C@H](C)NC(=O)[C@@H](NC(=O)OCc1ccccc1)C(C)C)C(=O)CF [ZVAD-FMK] (Cbz-Val-Ala-Asp(OMe)-CH2F) |  |  |  | reversed this effect
